Data taken from patent publication US7547548B2, “Method for producing direct in vitro flowering and viable seed from cotyledon, radicle, and leaf explants, and plants produced therefrom” (University of Toledo, priority 2004, dated 2009).

What was measured:
cotyledonary explant = test: Direct flower bud induction on cotyledon explants on MSB5 medium with growth regulators; type: cell-based, soybean
Procedure: Preferably before germination, the seeds are washed in running tap water with a drop of soap for 15 mins and sterilized with 70% ethyl alcohol for 1 min followed by a 10 minute treatment with 0.1% mercuric chloride and washed three times for 5 min intervals with sterile distilled water. Six seeds are germinated in each petriplate with MSB5 medium After germination on a MSB5 for a period of time, such as 3 days in the dark at 24±2° C., both the cotyledons are split and the radicle and embryo are removed. The isolated cotyledons from the seed are plated on cotyledon-flowering medium (which is another embodiment of the invention and is described in detail below). The cotyledon-flowering medium preferably comprises a substituted phenylurea cytokinin analog, such as TDZ and a cytokinin such as BAP.
If desired, the cotyledon may be transformed at this time with any suitable technique known in the art. Preferably the abaxial side of a cotyledon is placed in contact with a cotyledon-flowering medium. Cultures are incubated at 24±2° C. under a 16/8-hour […] photoperiod provided by cool-white fluorescent lights at a quantum flux density of 30 μmol s^−1m^−2.
Following a passage of time, typically within 3 weeks, flower bud initiation occurs on a cotyledon having been placed on a cotyledon-flowering medium. After about 3 weeks, cotyledons are transferred to MSB5 medium. The flower bud continues to grow on MSB5 medium to develop and produce viable seeds. During this time, cultures are incubated with necessary light-dark photoperiodic conditions to promote growth and to mimic natural growing conditions. Additionally, over time it may be necessary to subculture the explants with fresh MSB5 medium. See example 1 and FIGS, 1a-1d for direct viable-seed producing flower bud initiation on a soybean cotyledon.
Healthy soybean seeds are hand picked and washed with a few drops of soap (Linquinox, Fischer scientific, Pittsburgh, Pa.) for 10 minutes in running tap water. The seeds are then sterilized in 70% ethyl alcohol for 1 min and treated with 0.1% (w/v) mercuric chloride for 10 min. Sterilized seeds are again washed for three times at five minute intervals with sterilized distilled water, and plated six seed on each petri plate containing 20 ml of MSB5 medium. Three-day-old aseptic seedlings are used as the source material for explant preparation. Six isolated cotyledons are plated on each culture plate in such a way that the abaxial side in contact with the medium. MSB5 medium supplemented with different concentrations of TDZ (0.1, 0.5, 1.0, 2.0 and 5.0 mg/L) either alone, or in combination, with BAP (1.0-4.0 mg/L) are tested for flower induction. The media is augmented with 3% (w/v) sucrose and solidified with 0.56% agar (Phytotech Labs). The pH of the medium is adjusted to 5.8 with 0.1M NaOH or 0.1M HCl before autoclaving at 1.4 kg cm^−2 for 20 min at 121° C. The cultures are incubated in light-dark (16-8 hrs) photoperiodic conditions of cool-white-fluorescent light providing a quantum flux density of […] at 25±2° C. Explants with or without multiple flower buds are subcultured regularly at 20 days interval to fresh medium. Within 15 days of culture initiation, the bulging of cotyledons and induction of deep greenish unorganized structures from the proximal end is noticed.

[1] = test system: Leaf segments from a petunia; test: In vitro flowering from leaf explant of petunia; type: cell-based; details: MS basal medium, TDZ 0.1, 0.5, 1.0, 2.0 and 5.0 mg/L alone; 4 weeks
Procedure: Leaf segments from a petunia were sterilized using the sterilization procedures described above and placed on MS basal medium supplemented with different concentrations of TDZ (0.1, 0.5, 1.0, 2.0 and 5.0 mg/L) either alone or in combination with BAP (3.0 mg/L) or on a MS basal medium with no hormones. […] A large number of flowers were induced on MS basal medium. FIG. 7 is a photograph showing in vitro flowering in a petunia.

cotyledon = test: Shoot, fertile flower and viable seed production from in vitro developed shoots from cotyledon; type: cell-based, soybean; details: BAP 3.0 mg/L without TDZ
Procedure: In this method, the isolated cotyledons from the germinated seed are plated on a cotyledon-shoot-flowering medium (which is another embodiment of the invention and is described below). A cotyledon-shoot flowering medium preferably comprises a cytokinin or mixtures thereof, such as BAP or combinations of cytokinins and a substituted phenylurea cytokinin analog such as TDZ or mixtures thereof. If desired, the cotyledon may be transformed at this time with any suitable technique known in the art. Preferably the abaxial side of the cotyledon is placed in contact with a cotyledon-shoot-flowering medium. Cultures are incubated at 24×2° C. under a 16/8-hour dark photoperiod provided by cool-white fluorescent lights at a quantum flux density of 30 μmol s^−1m^−2. Following a passage of time, typically, within four to six weeks, shoot initiation occurs on a cotyledon having been placed on a cotyledon-shoot-flowering medium. The shoot continues to grow and develop a flower bud within two to four weeks after shoot initiation. The explant is maintained on a cotyledon-shoot flowering medium for about 15 days and then transferred to MSB5 medium. Healthy soybean seeds are hand picked and washed with a few drops of soap (Linquinox, Fischer scientific, Pittsburgh, Pa.) for 10 minutes in running tap water. […]

**Q.** For O=C(Nc1ccccc1)Nc1cnns1 [TDZ, 1-phenyl-3-(1,2,3-thiadiazol-5-yl)urea], which “flower induction and shoot induction” value (cotyledonary explant; TDZ 5.0 mg/L) is on record?
**A.** Its value is “neither flower induction nor shoot induction was noticed”.

**Q.** What about the “flower production on cotyledonary explants” value (cotyledonary explant; TDZ 1.0-2.0 mg/L without BAP) of the same compound?
**A.** Its value is “produces flowers on cotyledonary explants”.

**Q.** And the “number and frequency of flowers induced” value (cotyledonary explant; TDZ below 1.0 mg/L)?
**A.** The value was “fewer number of flowers and less frequently”.

**Q.** And the “appearance of induced flowers” value (cotyledonary explant; medium containing only 1.0 to 2.0 mg/L TDZ)?
**A.** Its value is “short, vitrified and abnormal”.

**Q.** And the flower bud induction [1]?
**A.** Its flower bud induction is “Multiple flower buds were induced”.

**Q.** c1ccc(CNc2ncnc3nc[nH]c23)cc1 [BAP, 6-benzylamino purine] was tested. Which “developmental outcome produced by cotyledon explants” value (cotyledonary explant; 3.0 mg/1 BAP) did it give?
**A.** The value was “only shoots”.

**Q.** And the “frequency of shoots, fertile flowers and viable seeds” value (cotyledon)?
**A.** The value was “high frequency of shoots with low frequency of fertile flowers and viable seeds”.
